Where two headings read alike, the source gives them in different places.
Tests used:
[1] = target: T1, human C1 r (Homo sapiens, UniProt P00736); assay: Assay of C1r Enzyme Activity (Assay 1), thioester substrate z-Gly-Arg-S-Bzl with DTNB; assay type: biochemical
T1 construct: purchased Enzyme Research Labs (South Bend, Ind.)
T1 sequence (P00736 464-705 limits assumed): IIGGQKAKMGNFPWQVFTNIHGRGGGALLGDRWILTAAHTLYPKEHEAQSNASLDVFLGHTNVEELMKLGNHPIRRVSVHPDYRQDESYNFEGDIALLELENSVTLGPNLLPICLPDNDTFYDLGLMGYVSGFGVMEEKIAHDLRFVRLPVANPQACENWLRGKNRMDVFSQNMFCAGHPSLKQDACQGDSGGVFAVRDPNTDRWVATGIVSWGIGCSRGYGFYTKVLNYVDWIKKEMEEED
T1 sequence (P00736 18-463 partner limits assumed): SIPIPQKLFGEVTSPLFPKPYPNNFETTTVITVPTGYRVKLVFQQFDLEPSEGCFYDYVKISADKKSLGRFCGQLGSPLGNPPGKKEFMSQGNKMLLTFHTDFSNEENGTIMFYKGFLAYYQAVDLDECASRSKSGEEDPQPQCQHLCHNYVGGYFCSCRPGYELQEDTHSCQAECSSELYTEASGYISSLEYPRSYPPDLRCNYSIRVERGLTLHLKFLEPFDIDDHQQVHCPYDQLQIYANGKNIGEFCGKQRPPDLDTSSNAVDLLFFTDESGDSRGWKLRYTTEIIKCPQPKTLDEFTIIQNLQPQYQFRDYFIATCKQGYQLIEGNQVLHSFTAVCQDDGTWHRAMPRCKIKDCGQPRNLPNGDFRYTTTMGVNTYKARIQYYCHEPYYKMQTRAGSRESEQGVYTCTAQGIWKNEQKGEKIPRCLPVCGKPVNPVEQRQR
Method: Assay of C1 r Enzyme Activity Purified human C1 r was obtained commercially from Enzyme Research Labs (South Bend, Ind.). The enzyme is stored frozen at -70° C. at a stock concentration of about 1 mg/mL of protein until the enzyme is needed. […] The thioester substrate, z-Gly-Arg-S-Bzl, for C1 r assays (McRae, et al., 1981) is obtained commercially from Enzyme System Products (Livermore, Calif.). All other reagents were obtained from Sigma Chemical Co. (St. Louis, Mo.). The procedure for assaying the inhibition of C1 r enzyme activity is as follows. A 5 mM stock solution of z-Gly-Arg-S-Bzl is made in dimethylsulfoxide (DMSO) and stored at room temperature until needed. The stock substrate solution is diluted 3 parts stock substrate solution to 7 parts distilled water to make a 1.5 mM working substrate solution. The working substrate solution is made just before it is needed. A fresh solution of 20 μg/mL of C1 r enzyme is made in 10 mM Tris buffer, pH 7.4. The enzyme solution can be stored on ice for up to an hour. […] Compounds at concentrations ranging from 1 mM to 0.010 mM are dissolved in DMSO and a 10 μL aliquot of each concentration is deposited in a well of a 96-well microtiter plate. Fifty microliters of the working substrate solution and 50 μL of DTNB solution are then dispensed in the wells of the microtiter plate, followed by the immediate addition of 50 μL of the C1 r enzyme solution to start the assay. The assay produces a yellow color that is read in the kinetic mode using a Molecular Devices Thermomax microplate reader set to a wavelength of 405 nm. The assay background is followed by monitoring wells that contain substrate, buffer, and DTNB solutions but no enzyme. All assays are performed in triplicate at each inhibitor concentration tested. Values for each inhibitor concentration are reported as optical density (OD)/minute.

[2] = target: T2, human complement protease C1 r (Homo sapiens, UniProt P00736); assay: Assay 2, inhibition of human complement protease C1r with substrate ZVGR-pNA; assay type: biochemical; details: Table 2; substrate ZVGR-pNA 1.2 mM, pH 7.4, 25° C., 10 minutes preincubation; read-out: Inhibition of Clr ZVGRpNA - Assay 2
T2 sequence (P00736 464-705 limits assumed): T1 sequence (P00736 464-705 limits assumed)
T2 sequence (P00736 18-463 partner limits assumed): T1 sequence (P00736 18-463 partner limits assumed)
Method: The assay was performed in a 96-well format. Fifty microliters of water were added to each well followed by 2.5 μL of an inhibitory agent, usually in dimethyl foramide (DMF) (or water). A C1 r solution (100 μL) containing 0.1 μg of activated human C1 r and 100 mM Tris-HCl (pH 7.4 at 25° C.) was then added. The mixture was incubated for 10 minutes at 25° C. The reaction was then started by the addition of 100 μL of a 3 mM (Cbz-Val-Gly-Arg-p-nitroanilide) ZVGR-pNA solution. The final reaction mixture (250 μL) contained 40 mM of Tris-HCl, 1.2 mM of ZVGR-pNA, 0.1 μg C1 R and certain concentration of an inhibitor. The production of p-nitroaniline was monitored at 405 nm every 15 minutes up to 90 minutes (at 25° C.). The velocity was linear for at least 60 minutes.

[3] = Table 1 and text, pH 7.4-7.5, read-out: Inhibition of Clr Assay 1 (IC50)
[4] = Table 2, pH 7.4-7.5, read-out: Inhibition of Clr Assay 1 IC50

| IC50 [1, 3] | IC50 [1, 4] | IC50 [2] | SMILES |
| --- | --- | --- | --- |
| > 66 µM | – | – | CN(C(=O)c1ccccc1I)c1nc2ccc(Cl)cc2c(=O)o1 [Example 41, N-(6-Chloro-4-oxo-4H-benzo[d][1,3]oxazin-2-yl)-2-iodo-N-methyl-benzamide] |
| 18 µM | – | – | CN(C(=O)c1ccccc1I)c1nc2cc(Cl)ccc2c(=O)o1 [Example 42, N-(7-Chloro-4-oxo-4H-benzo[d][1,3]oxazin-2-yl)-2-iodo-N-methyl-benzamide] |
| 48 µM | – | – | COc1ccc2nc(N(C)C(=O)c3ccccc3I)oc(=O)c2c1 [Example 43, 2-Iodo-N-(6-methoxy-4-oxo-4H-benzo[d][1,3]oxazin-2-yl)-N-methyl-benzamide] |
| > 66 µM | – | – | COc1ccc2c(=O)oc(N(C)C(=O)c3ccccc3I)nc2c1 [Example 44, 2-Iodo-N-(7-methoxy-4-oxo-4H-benzo[d][1,3]oxazin-2-yl)-N-methyl-benzamide] |
| 1.4 µM | – | – | Cc1ccc2c(=O)oc(Nc3ccccc3Cl)nc2c1 [Example 45, 2-(2-Chloro-phenylamino)-7-methyl-benzo[d][1,3]oxazin-4-one] |
| 7 µM | – | – | O=c1oc(Nc2ccccc2I)nc2cc(F)c(F)cc12 [Example 46, 6,7-Difluoro-2-(2-iodo-phenylamino)-benzo[d][1,3]oxazin-4-one] |
| 2 µM | – | – | O=c1oc(Nc2ccccc2Cl)nc2cc(Cl)c(Cl)cc12 [Example 48, 6,7-Dichloro-2-(2-chloro-phenylamino)-benzo[d][1,3]oxazin-4-one] |
| 0.4 µM | – | – | O=c1oc(Nc2c(Cl)cccc2Cl)nc2cc(Cl)ccc12 [Example 50, 7-Chloro-2-(2,6-dichloro-phenylamino)-benzo[d][1,3]oxazin-4-one] |
| 31 µM | – | – | Cc1ccccc1Nc1nc2ccccc2c(=O)o1 [Example 51, 2-o-Tolylamino-benzo[d][1,3]oxazin-4-one] |
| 1.4 µM | – | – | O=c1oc(Nc2ccccc2Cl)nc2cc([N+](=O)[O-])ccc12 [Example 52, 2-(2-Chloro-phenylamino)-7-nitro-benzo[d][1,3]oxazin-4-one] |
| 1.5 µM | – | – | O=c1oc(Nc2c(Cl)cccc2Cl)nc2ccccc12 [Example 53, 2-(2,6-Dichloro-phenylamino)-benzo[d][1,3]oxazin-4-one] |
| 36 µM | – | – | CN(C(=O)c1ccccc1I)c1nc2cccc(Cl)c2c(=O)o1 [Example 54, N-(5-Chloro-4-oxo-4H-benzo[d][1,3]oxazin-2-yl)-2-iodo-N-methyl-benzamide] |
| 2.8 µM | – | – | Cc1ccc2c(=O)oc(N(C)C(=O)c3ccccc3I)nc2c1 [Example 55, 2-Iodo-N-methyl-N-(7-methyl-4-oxo-4H-benzo[d][1,3]oxazin-2-yl)-benzamide] |
| 8 µM | – | – | CN(C(=O)c1ccccc1I)c1nc2cc(Cl)c(Cl)cc2c(=O)o1 [Example 56, N-(6,7-Dichloro-4-oxo-4H-benzo[d][1,3]oxazin-2-yl)-2-iodo-N-methyl-benzamide] |
| 23.4 µM | – | – | CN(C(=O)c1cccc2ccccc12)c1nc2ccccc2c(=O)o1 [Example 57, Naphthalene-1-carboxylic acid methyl-(4-oxo-4H-benzo[d][1,3]oxazin-2-yl)-amide] |
| 16 µM | – | – | CCCCc1ccc(C(=O)N(C)c2nc3ccccc3c(=O)o2)cc1 [Example 58, 4-Butyl-N-methyl-N-(4-oxo-4H-benzo[d][1,3]oxazin-2-yl)-benzamide] |
| 19 µM | – | – | COc1ccc(C(=O)N(C)c2nc3ccccc3c(=O)o2)cc1 [Example 59, 4-Methoxy-N-methyl-N-(4-oxo-4H-benzo[d][1,3]oxazin-2-yl)-benzamide] |
| 10.1 µM | – | – | CN(C(=O)c1ccco1)c1nc2ccccc2c(=O)o1 [Example 61, Furan-2-carboxylic acid methyl-(4-oxo-4H-benzo[d][1,3]oxazin-2-yl)-amide] |
| 40 µM | – | – | CN(C(=O)c1cccnc1)c1nc2ccccc2c(=O)o1 [Example 62, N-Methyl-N-(4-oxo-4H-benzo[d][1,3]oxazin-2-yl)nicotinamide] |
| – | 0.68 µM | 0.0478 µM | CCCCCCC(=O)N(C)c1nc2ccccc2c(=O)o1 [Example 64, Heptanoic acid methyl-(4-oxo-4H-benzo[d][1,3]oxazin-2-yl)-amide] |
| – | 1.2 µM | 0.0078 µM | CN(C(=O)C1CCCCC1)c1nc2ccccc2c(=O)o1 [Example 65, Cyclohexanecarboxylic acid methyl-(4-oxo-4H-benzo[d][1,3]oxazin-2-yl)-amide] |
| – | 6.32 µM | 0.029 µM | CCCCCCC(=O)N(CC)c1nc2ccccc2c(=O)o1 [Example 66, Heptanoic acid ethyl-(4-oxo-4H-benzo[d][1,3]oxazin-2-yl)-amide] |
| – | > 62.5 µM | 0.5 µM | CCCCCCCCCCC(=O)N(C)c1nc2ccccc2c(=O)o1 [Example 67, Undecanoic acid methyl-(4-oxo-4H-benzo[d][1,3]oxazin-2-yl)-amide] |
| – | 1.3 µM | 0.103 µM | CN(C(=O)CCc1ccccc1)c1nc2ccccc2c(=O)o1 [Example 68, N-Methyl-N-(4-oxo-4H-benzo[d][1,3]oxazin-2-yl)-3-phenyl-propionamide] |
| – | 30 µM | 0.399 µM | CC(=O)N(C)c1nc2ccccc2c(=O)o1 [Example 69, N-Methyl-N-(4-oxo-4H-benzo[d][1,3]oxazin-2-yl)acetamide] |
| 12 µM | – | – | N=C(N)c1ccc2cc(OC(=O)c3ccc(N=C(N)N)cc3)ccc2c1 [FUT-175, reference compound] |
